Source: PMC10931740, “Uncovering the Role of Hydroxycinnamoyl Transferase in Boosting Chlorogenic Acid Accumulation in Carthamus tinctorius Cells under Methyl Jasmonate Elicitation” (International Journal of Molecular Sciences, 2024)

Tested on: T1, CtHCT (CtNewGene_3476), recombinant hydroxycinnamoyl transferase
T1 construct: gene HCT; HXXXD 156-160, DFGWG 379-383
Assay: HPLC product assay, Lineweaver-Burk
Assay type: biochemical, Carthamus tinctorius
Conditions: pH 7.5, 35 °C, 1 mM Cu2+
Text: HPLC product assay, Lineweaver-Burk on CtHCT (CtNewGene_3476), recombinant hydroxycinnamoyl transferase

| SMILES | Km (saturating quinic acid) [µM] | Km (saturating p-coumaroyl-CoA) [µM] |
| --- | --- | --- |
| CC(C)(COP(=O)(O)OP(=O)(O)OC[C@H]1O[C@@H](n2cnc3c(N)ncnc32)[C@H](O)[C@@H]1OP(=O)(O)O)[C@@H](O)C(=O)NCCC(=O)NCCSC(=O)/C=C/c1ccc(O)c(O)c1 [C-COA, Caffeoyl-CoA] | 32.6 |  |
| O=C(O)[C@]1(O)C[C@@H](O)[C@@H](O)[C@H](O)C1 [QA, Quinic acid] |  | 7.11 |
| O=C(O)C1=C[C@@H](O)[C@@H](O)[C@H](O)C1 [SkA, Shikimic acid] |  | 18.4 |
| CC(C)(COP(=O)(O)OP(=O)(O)OC[C@H]1O[C@@H](n2cnc3c(N)ncnc32)[C@H](O)[C@@H]1OP(=O)(O)O)[C@@H](O)C(=O)NCCC(=O)NCCSC(=O)/C=C/c1ccc(O)cc1 [p-CoCOA, p-Coumaroyl-CoA] | 9.41 |  |
